Experimental findings from patent US20070129384A1 (priority 2003, published 2007) are described below.

In this assay the test system is Pyricularia oryzae. The class given is in vivo. To be noted: individual active compound, protective, rice leaves, evaluated 6 days after inoculation, untreated 89% infection.

Molecules are shown by their SMILES. Like-named read-outs stand apart in the source and are kept apart here.

`CC1CCN(c2c(-c3c(F)cc(F)cc3F)c(Cl)nc3ncnn23)CC1` [I, 5-chloro-7-(4-methylpiperidin-1-yl)-6-(2,4,6-trifluorophenyl)-[1,2,4]tri-azolo[1,5-a]pyrimidine]: the “Efficacy in % of the untreated control” value reads like this: (1 ppm in the spray liquor) 10%; (16 ppm in the spray liquor) 32%.
`COC(=O)Nc1nc2ccccc2[nH]1` [II, methyl (1 H-benzoimidazol-2-yl)carbamate]: the “Efficacy in % of the untreated control” value runs as follows: (4 ppm in the spray liquor) 0%; (16 ppm in the spray liquor) 32%.
